Results taken from patent US6673576B1, “Process for producing nucleic acids” (priority 1995, dated 2004).

Legend:
[1] = target: T1, inosine-guanosine kinase derived from Exiguobacterium acetylicum (Exiguobacterium acetylicum, UniProt O24767); assay: Effect of metal ions on the purified kinase; assay type: biochemical; settings: for inhibition of the enzyme by metal ions (in words): 1 mM metal ions; for Relative activity: Metal salts (1 mM) present in the reaction mixture, not added = 100
Experimental: (§1) Fifty microliter of this reaction mixture was used as a basic composition and the reaction was carried out at 30° C. for 10 minutes. The enzyme had the following properties.

[2] = target: T1, inosine-guanosine kinase derived from Exiguobacterium acetylicum; assay: Metal requirement of the purified kinase; assay type: biochemical; settings: for Relative activity: Metal salts (5 mM) instead of magnesium chloride, MgCl2 = 100; for metal requirement (in words): metal ions replacing magnesium chloride
Experimental: as §1
The reaction was performed by changing magnesium chloride to various metal ions in the reaction solution.

[3] = target: T1, inosine-guanosine kinase derived from Exiguobacterium acetylicum; assay: Phosphate donor specificity (nucleoside triphosphates) of the purified kinase; assay type: biochemical; settings: for use as phosphate donor (in words): 5 mM nucleoside triphosphate; for Relative activity: Nucleoside triphosphate (5 mM) instead of ATP, ATP = 100
Experimental: as §1
The reaction was performed by using 5 mM of each of various nucleoside triphosphates instead of ATP, and the possible phosphate donors were examined.

[4] = target: T1, inosine-guanosine kinase derived from Exiguobacterium acetylicum; assay: Substrate specificity (nucleoside as phosphate receptor) of the purified kinase; assay type: biochemical; settings: for Relative activity: Nucleoside (0.5 mM) instead of guanosine, [γ-32P]-ATP, guanosine = 100; for use as phosphate receptor (in words): 0.5 mM nucleoside
Experimental: as §1
The reaction was performed by using 0.5 mM of each of various nucleosides instead of guanosine and [Υ-^32P]-ATP instead of ATP. The thus-formed nucleoside 5′-phosphate was measured.

[5] = pH and temperature optimum and stability of the purified kinase; assay type: biochemical, Exiguobacterium acetylicum
Experimental: as §1
The reaction was performed by changing the buffer to 100 mM of sodium acetate-acetic acid buffer (pH 4.2-5.6), 2-morphorinoethanesulfonic acid (hereinafter referred to as “MES”)-sodium hydroxide buffer (pH 5.4-6.3), 3-morphorinopropanesulfonic acid (MOPS)-sodium hydroxide buffer (pH 6.3-7.2), Tris-hydrochloride buffer (pH 7.2-8.8), cyclohexylaminopropanesulfonic acid (hereinafter referred to as “CAPS”)- sodium hydroxide buffer (pH 8.8-10.4) or glycine-sodium hydroxide buffer (pH 10.3-11.0). The optimum pH was between 7.7 and 9.9.
The enzyme was treated at room temperature for 30 minutes with 250 mM sodium acetate-acetate buffer ([…]), MES-sodium hydroxide buffer (pH 5.4-6.4), MOPS-sodium hydroxide buffer (pH 6.3-7.3), Tris-hydrochloride buffer (pH 7.2-8.8), CAPS-sodium hydroxide buffer (pH 8.9-10.4) or glycine-sodium hydroxide buffer (pH 10.5-13.3), each containing 2.5 mg/ml of bovine- serum albumin, 25 mM potassium chloride, 0.25 mM dithiothreitol and 5% glycerol. Then, the activity of the enzyme was measured. As a result, the activity of the enzyme was stable within the pH range between 6.7 and 12.1
The reaction was performed within the temperature range between 16° C. and 60° C. […]

[6] = substrate: Nc1ncnc2c1ncn2[C@@H]1O[C@H](COP(=O)(O)OP(=O)(O)OP(=O)(O)O)[C@@H](O)[C@H]1O; assay: Km values of the purified kinase; assay type: biochemical, Exiguobacterium acetylicum; settings: other: for ATP when guanosine was used as a substrate; pH 7.5; 30.0 °C
Experimental: as §1

[7] = substrate: Nc1nc2c(ncn2[C@@H]2O[C@H](CO)[C@@H](O)[C@H]2O)c(=O)[nH]1; assay: Km values of the purified kinase; assay type: biochemical, Exiguobacterium acetylicum; settings: other: substrate concentration varied; pH 7.5; 30.0 °C
Experimental: as §1

[8] = substrate: OC[C@H]1O[C@@H](n2cnc3c(O)ncnc32)[C@H](O)[C@@H]1O; assay: Km values of the purified kinase; assay type: biochemical, Exiguobacterium acetylicum; settings: other: substrate concentration varied; pH 7.5; 30.0 °C
Experimental: as §1

In the case of `[Cl][Cd][Cl]` [CdCl2], the “inhibition of the enzyme by metal ions (in words)” value (“inhibition of the enzyme” below) [1] is reported as “also inhibited” and the Relative activity [1] is reported as 43%.

Work on `O.O.O.O.O.O.O.O=S(=O)([O-])[O-].[Mg+2]` [MgSO4.7H2O] yielded a Relative activity [1] of 110% and a Relative activity [2] of 107%.

For `Nc1ncnc2c1ncn2[C@H]1C[C@H](O)[C@@H](COP(=O)(O)OP(=O)(O)OP(=O)(O)O)O1` [2′-deoxyadenosine triphosphate], the “use as phosphate donor (in words)” value [3] was “used as the phosphate donor” and the Relative activity [3] was 71%.

`Nc1ncnc2c1ncn2[C@H]1C[C@H](O)[C@@H](CO)O1` [2′-deoxyadenosine] showed a Relative activity [4] of 0%.

In the case of `OC[C@H]1O[C@@H](n2cnc3c(O)ncnc32)[C@H](O)[C@@H]1O` [inosine], the “use as phosphate receptor (in words)” value [4] is reported as “used as a phosphate receptor” and the Relative activity [4] is reported as 5%.

`O=c1[nH]c(=O)c2ncn([C@@H]3O[C@H](CO)[C@@H](O)[C@H]3O)c2[nH]1` [xanthosine] showed a Relative activity [4] of 0%.

In the case of `Nc1nc2c(ncn2[C@@H]2O[C@H](COP(=O)(O)OP(=O)(O)OP(=O)(O)O)[C@@H](O)[C@H]2O)c(=O)[nH]1` [guanosine triphosphate], the “use as phosphate donor (in words)” value [3] is reported as “used as the phosphate donor” and the Relative activity [3] is reported as 59%.

`O.O.[Ca+2].[Cl-].[Cl-]` [CaCl2.2H2O] showed a Relative activity [1] of 71% and a Relative activity [2] of 1%.

For `O.O.O.O.O.O.[Cl-].[Cl-].[Co+2]` [CoCl2.6H2O], the Relative activity [1] was 103%, the Relative activity [2] was 36% and the “metal requirement (in words)” value [2] was “the reaction proceeded”.

In the case of `O=c1ccn([C@@H]2O[C@H](COP(=O)(O)OP(=O)(O)OP(=O)(O)O)[C@@H](O)[C@H]2O)c(=O)[nH]1` [uridine triphosphate], the Relative activity [3] is reported as 4%.

For `[Ba+2].[Cl-].[Cl-]` [BaCl2], the Relative activity [1] was 106%.

In the case of `O.O.O.O.O.O.O.O=S(=O)([O-])[O-].[Fe+2]` [FeSO4.7H2O], the Relative activity [1] is reported as 95%, the Relative activity [2] is reported as 24% and the “metal requirement (in words)” value [2] is reported as “the reaction proceeded”.

`Nc1ccn([C@@H]2O[C@H](COP(=O)(O)OP(=O)(O)OP(=O)(O)O)[C@@H](O)[C@H]2O)c(=O)n1` [cytidine triphosphate] gave a Relative activity [3] of 6%.

In the case of `[Cl-].[Cl-].[Zn+2]` [ZnCl2], the “inhibition of the enzyme” value [1] is reported as “also inhibited”, the Relative activity [1] is reported as 58% and the Relative activity [2] is reported as 1%.

For `Nc1nc2c(ncn2[C@@H]2O[C@H](CO)[C@@H](O)[C@H]2O)c(=O)[nH]1` [guanosine], the “use as phosphate receptor (in words)” value [4] was “used as a phosphate receptor” and the Relative activity [4] was 100%.

For `[Cl][Hg][Cl]` [HgCl2], the “inhibition of the enzyme” value [1] was “strongly inhibited” and the Relative activity [1] was 22%.

In the case of `O.O.O.O.[Cl][Mn][Cl]` [MnCl2.4H2O], the Relative activity [1] is reported as 81%, the Relative activity [2] is reported as 55% and the “metal requirement (in words)” value [2] is reported as “the reaction proceeded”.

For `Nc1nc2c(ncn2[C@H]2C[C@H](O)[C@@H](COP(=O)(O)OP(=O)(O)OP(=O)(O)O)O2)c(=O)[nH]1` [2′-deoxyguanosine triphosphate], the “use as phosphate donor (in words)” value [3] was “used as the phosphate donor” and the Relative activity [3] was 61%.

With `O.O.O.O.O.O.[Cl-].[Cl-].[Mg+2]` [MgCl2.6H2O] the Relative activity [2] was 100% and the “metal requirement (in words)” value [2] was “the reaction proceeded”.

In the case of `Nc1ncnc2c1ncn2[C@@H]1O[C@H](COP(=O)(O)OP(=O)(O)OP(=O)(O)O)[C@@H](O)[C@H]1O` [adenosine triphosphate], the “use as phosphate donor (in words)” value [3] is reported as “used as the phosphate donor” and the Relative activity [3] is reported as 100%.

With `Nc1nc2c(ncn2[C@H]2C[C@H](O)[C@@H](CO)O2)c(=O)[nH]1` [2′-deoxyguanosine] the “use as phosphate receptor (in words)” value [4] was “used as a phosphate receptor” and the Relative activity [4] was 4%.

For `O.O.O.O.O.O.[Cl][Ni][Cl]` [NiCl2.6H2O], the Relative activity [1] was 113% and the Relative activity [2] was 1%.

With `O.O.[Cl][Cu][Cl]` [CuCl2.2H2O] the “inhibition of the enzyme” value [1] was “strongly inhibited” and the Relative activity [1] was 25%.

Work on `Nc1ncnc2c1ncn2[C@@H]1O[C@H](CO)[C@@H](O)[C@H]1O` [adenosine] yielded a Relative activity [4] of 0%.

B1: inosine-guanosine kinase derived from Exiguobacterium acetylicum (Exiguobacterium acetylicum) (protein)
chain: MNKIAVIGKVFVDIKGTSFAPLHKDAKNVGDITFSNGGTGRNVAQNLAVLGNEVRFISTVTNDQIGVGVLDELKSYGANVDHVEMLEDHGMGMWLAVMDNEGDLQTSISKQPDAKLLEEAILRQSIYALDGVDAVAIDLDLSVTVLERLIHLCRKMELPLFGVCGHLSVIERNRHLLQGFTGFICSREEAEILSDLSIVTVEDAIHVANELAKKGAPFTVVTMSELGAVYVDRRTATSGHVGTKKVKVVDSTGAGDSFFSAVLSELTQEKSAEEALKLGMKVAAEVIASTENGLVPEMLDALQ
For B1, the residual activity maintained ([5]; treatment at 25° C. or lower for 30 minutes) was ≥ 50%, the “temperature at which the enzyme was inactivated” value ([5]; treatment for 30 minutes at 4 to 60° C.) was ≥ 40 °C and the Km [6] was 1600 µM. The Km [7] was 30 µM and the Km [8] was 1000 µM.
